Experimental data: PubChem BioAssay AID449762 (Southern Research Specialized Biocontainment Screening …, 2010)
Results filed as inconclusive are left out.

System: M. tuberculosis H37Rv growth inhibition, 7H9 media
Test: M. tuberculosis growth inhibition, HTS (AID 449762);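 note: bacterial growth assessed after seven days of incubation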
Conditions: for IC90: measured here: IC90 growth inhibition

Row | Structure (SMILES) | IC50 | IC90
1 | COc1ccc(NC(=O)c2oc3ccc(S(=O)(=O)N4CCOCC4)cc3c2C)cc1 | 0.68 µM | 7.38 µM
2 | Cc1ccc(CNc2ccc3c(c2)ncn3C(C)(C)C)cc1 | 7.41 µM | 14.8 µM
3 | Cc1ccc(C)c(NNC(N)=S)c1 | 6.39 µM | 15.6 µM
4 | CCO[C@H]1OC(C(=O)NCc2nc3ccccc3[nH]2)=C[C@@H](c2csc3ccccc23)[C@@H]1CCCO | 44.8 µM | 50.5 µM
5 | CS(=O)(=O)c1ccc([C@@H](O)[C@@H](CF)NC(=O)C(Cl)Cl)cc1 | 10.1 µM | 24.7 µM
6 | CCOc1cc(/C=C2\COc3ccccc3C2=O)cc(Br)c1OCC(=O)N(C)C | 2.75 µM | 6.63 µM
7 | CC1(C)CC(=O)c2c(O)cc(OCc3ccc(Br)cc3)cc2O1 | 42 µM | 67.3 µM
8 | Cc1cc(=O)oc2cc(Oc3ccc([N+](=O)[O-])cc3C(F)(F)F)ccc12 | 68.7 µM | > 100 µM
9 | COC(=O)C(C)Oc1cc(C)ccc1COc1ccc(-n2nc(C)n(C(F)F)c2=O)cc1 (stereo not given) | 16.6 µM | 32.9 µM
10 | COc1ccc(Cl)cc1C(=O)O/N=C(\N)c1ccccn1 | 25.4 µM | > 100 µM
11 | COc1ccc(NC(=O)CSc2nnc(-c3ccccn3)n2N)cc1Cl | 18.1 µM | > 100 µM
12 | N#C/C(=C/c1ccc(Sc2nc3ccccc3[nH]2)o1)c1cccc(Br)c1 | 77.6 µM | > 100 µM
13 | S=C(Nc1ccc(Cl)cc1)NC1CC2CCC(C1)N2Cc1ccccc1 (stereo not given) | 10.9 µM | 14.8 µM
14 | Cc1cc(C)n2nc(N)c(N=Nc3ccccc3)c2n1 | 2.9 µM | 3.27 µM
15 | CCOC(=O)CN[C@H]1CCC2C3CC=C4C[C@@H](O)CC[C@]4(C)C3CC[C@@]21C (stereo not given in full) | 1.41 µM | 8.37 µM
16 | COC(=O)c1c(NC(=O)C(=O)N2CCCC2)sc2c1CC(C)(C)OC2 | 9.46 µM | 27.7 µM
17 | CCCCCc1ccc(-c2cn(Cc3cccc(OC)c3)nn2)cc1 | 20.7 µM | 50 µM
18 | CCOC(=O)c1ccccc1NC(=O)COc1coc(CN2CCc3ccccc32)cc1=O | 17.9 µM | 38.2 µM
19 | O=C(/C(=C/c1ccc(Cl)cc1)c1nc2ccccc2[nH]1)c1cccs1 | 21.2 µM | 42.7 µM
20 | NC(=O)CSc1nnc(COc2ccc3ccccc3c2)o1 | 1.75 µM | > 100 µM
21 | CC1(C)CN(c2ccccc2)N(C(=O)c2ccc(C#N)cc2)C1=O | 72.4 µM | > 100 µM
22 | Cn1ccc(=Nc2ccc(NC(=O)c3ccc(N=c4ccn(C)c5ccc([N+](=O)[O-])cc45)cc3)cc2)cc1 | < 0.2 µM | < 0.2 µM
23 | COCCNC(=S)N/N=C(\C)c1ccc(OC)cc1 | 40.8 µM | 49.4 µM

Row | Structure (SMILES) | IC50 | IC90
24 | CCc1ccc(-c2nn(-c3ccccc3)cc2CSC(=N)N)cc1 | 17.5 µM | 22.4 µM
25 | CC(=O)OC1=Cc2c(ccc3ccc(=O)oc23)OC1(C)C | 14 µM | 31.6 µM
26 | Cc1ccc(-n2cc(CNCCn3nc(C)cc3C)c(-c3ccc(F)cc3)n2)cc1 | 3.48 µM | 9.36 µM
27 | Cc1[nH]n(S(=O)(=O)Cc2ccccc2)c(=O)c1N=Nc1ccccc1Cl | 5.57 µM | 8.53 µM
28 | Cc1ccccc1N/N=C/c1c(C)nc2ccccn12 | 47.1 µM | 53.7 µM
29 | O=C(/C=C/c1ccc(O)c([N+](=O)[O-])c1)c1ccc2ccccc2c1 | 9.26 µM | 25.6 µM
30 | O=[N+]([O-])c1ccc(S(=O)(=O)c2ccccc2)nc1 | 1.01 µM | 2.08 µM
31 | C/C(CCc1ccc2c(c1)OCO2)=N\NC(=S)NC(C)C | 35.7 µM | 48.4 µM
32 | Cc1csc(NC(=S)Nc2cccc(Cl)c2)n1 | 2.76 µM | 6.01 µM
33 | CCOC(=O)c1cc(/C(C)=N/OC(=O)c2ccc(C(C)(C)C)cc2)on1 | 13.1 µM | 24.8 µM
34 | COC(=O)c1[nH]c2cc(OC)ccc2c1NC(=O)CN1CCN(c2cccc(C)c2)C(C)C1 (stereo not given) | 26.6 µM | 40.2 µM
35 | Cc1cc(OCc2cc(C(=O)N(C)CCc3cnn(C)c3)no2)cc(C)c1Cl | 26.9 µM | 51.4 µM
36 | O=C(COC(=O)C1CC2CCCC(C1)C2=O)NNC(=O)c1ccccc1F (stereo not given) | 9.47 µM | > 100 µM
37 | O=C(CSc1nnnn1C1CCCCC1)Nc1nc2c(s1)CCCC2 | 30.7 µM | 59.3 µM
38 | COc1ccccc1N1CCN(/N=C/C(Cl)=C/c2ccccc2)CC1 | 52.7 µM | > 100 µM
39 | c1cc2c3c(cccc3c1)NC1(CCC3(CC1)Nc1cccc4cccc(c14)N3)N2 | 65.5 µM | > 100 µM
40 | O=C1/C(=C\c2ccncc2)CCc2ccccc21 | 20.8 µM | 34.8 µM
41 | Cc1ccc2[nH]c3c(N4CCN(Cc5ccccc5)CC4)ncnc3c2c1 | 22.3 µM | 42.6 µM
42 | Cc1cc2nc(C3CCN(CC4COc5ccccc5O4)CC3)[nH]c2cc1C (stereo not given) | 15.5 µM | 25.4 µM
43 | COC(=O)COc1ccc(-c2ccccc2)cc1C=O | 11 µM | 19 µM
44 | C=C1C(=O)O[C@@H]2C[C@@H](C)[C@@H]3C4OC4C(=O)[C@@]3(C)[C@@H](O)[C@H]12 (stereo not given in full) | 3.64 µM | 9.39 µM
45 | O=C(OCC(=O)N1CCCc2ccccc21)c1ccc(S(=O)(=O)C(F)F)cc1 | 24.1 µM | 38 µM
46 | Cc1cccc(C(=O)NNC(=S)NC(=O)c2ccccc2)c1 | 0.59 µM | 2.82 µM

Row | Structure (SMILES) | IC50 | IC90
47 | COC(=O)C(C)Oc1ccc(Cc2ncc(C(F)(F)F)cc2Cl)cc1 (stereo not given) | 2.43 µM | 5.77 µM
48 | CC(C)(C)NC(=O)COC(=O)c1cc(Br)ccc1Cl | 27.8 µM | 65.1 µM
49 | CCOc1cc(C(=O)OCc2ccc(C(=O)OC)o2)cc(Br)c1OC | 61.7 µM | > 100 µM
50 | Cc1ccc(C(C(=O)NCC2CCCO2)N(Cc2ccccc2)C(=O)c2ccc(-c3ccccc3)[nH]2)o1 (stereo not given) | 23.3 µM | 35.6 µM
51 | CCOC(=O)Cn1c(C)c(Br)c(=O)c2cccc(C)c21 | 7.53 µM | 22.7 µM
52 | NC1=NC[C@H](CC2CCCCC2)N1CCc1cc(C(F)(F)F)cc(C(F)(F)F)c1 | 8.9 µM | 11.6 µM
53 | c1ccc(-c2cn3c(n2)CCc2ccc4cccnc4c2-3)cc1 | 8.12 µM | 41.2 µM
54 | N=C1C(c2nc3ccccc3[nH]2)=C(O)CN1NC(=O)c1c[nH]c2ccccc12 | 13.5 µM | 30.7 µM
55 | Oc1ccccc1Nc1nc(NCc2ccccc2)c2ccccc2n1 | 16.1 µM | 21.1 µM
56 | Cc1cc([N+](=O)[O-])c2ccccc2[n+]1[O-] | 5.76 µM | 9.62 µM
57 | O=[N+]([O-])c1ccc(-n2cnc3ccccc32)c([N+](=O)[O-])c1 | 1.61 µM | 5.96 µM
58 | Cc1ccc(C)c(N/C(N)=N/c2nc(C)cc(C)n2)c1 | 5.87 µM | 6.72 µM
59 | O=C1C(SCCO)=C(SCCO)C(=O)c2ccccc21 | 6.06 µM | 6.83 µM
60 | O=C(NN=C1c2ccccc2-c2ccccc21)c1cccc(Br)c1 | 0.28 µM | > 100 µM
61 | O=c1c(Cl)c2oc3ccccc3nc-2c2ccccc12 | 9.38 µM | 11.9 µM
62 | COc1ccc(N/C=C/C(=O)c2sc(-c3ccccc3)nc2C)cc1 | 30.8 µM | 55.4 µM
63 | COc1ccc(-c2nnc(SCC(=O)N3CCc4ccccc4C3)o2)cc1 | 17.6 µM | 29.2 µM
64 | CCN(CC)C(=O)c1cc([N+](=O)[O-])cc2c1-c1ccc([N+](=O)[O-])cc1C2=C(C#N)C#N | 21.3 µM | 23.8 µM
65 | O=C1Nc2ccc(Br)cc2C12NNc1ccccc1O2 (stereo not given) | 23.3 µM | 43.6 µM
66 | O=C(Nc1nc2nc(-c3ccccc3)cc(=O)n2[nH]1)c1ccccc1 | 17.8 µM | > 100 µM
67 | O=C(Oc1ccccc1)c1ccccc1OS(=O)(=O)c1ccccc1 | 1.1 µM | 14.3 µM
68 | CCNCC(=O)N1c2ccccc2CCc2ccc(NC(=O)OC(C)C)cc21 | 55.9 µM | 71.3 µM
69 | O=C(/C=C/c1cc(Br)ccc1O)c1ccco1 | 7.96 µM | 13.4 µM

Row | Structure (SMILES) | IC50 | IC90
70 | O=C(Oc1ccccc1-c1nnco1)c1ccc(Cl)cc1 | 10.3 µM | 44.7 µM
71 | COc1ccc(C2CC(c3cccs3)=Nc3ccccc3S2)cc1 (stereo not given) | 30.1 µM | 44 µM
72 | CNC(=S)/N=C/NOCc1c(Cl)cccc1Cl | 5.44 µM | 12.9 µM
73 | CCOC(=O)c1sc2nc3n(c(=O)c2c1C)CCC(C)CC3 (stereo not given) | 17 µM | 39 µM
74 | CCN(CC)c1ccc(/C=C2\SC(=O)N(C(C)C)C2=O)o1 | 1.34 µM | 4.79 µM
75 | COc1ccc(-c2cc3n(n2)CCc2nc4ccccc4n2-3)cc1 | 1.06 µM | 5.92 µM
76 | O=c1c2c(nc3nc(NCc4ccc(Cl)cc4)[nH]n13)CCC2 | 6.28 µM | 7.32 µM
77 | Cc1nc2sccn2c(=O)c1CCN1CCC(=C(c2ccccc2)c2ccc(F)cc2)CC1 | 44.7 µM | 49.9 µM
78 | Cc1ncsc1CCOC(=O)c1ccc([N+](=O)[O-])cc1 | 8.11 µM | > 100 µM
79 | O=C(c1ccc(Br)cc1)C(CN1CCOCC1)c1ccccc1 (stereo not given) | 4.73 µM | 9.41 µM
80 | O=C(c1cnn2c(C(F)F)cc(-c3ccccc3)nc12)N1CCc2ccccc2C1 | 40.4 µM | 49 µM
81 | Cc1ccc(C(=O)n2c(N)nc3ccccc32)cc1 | 43.8 µM | > 100 µM
82 | CC(/C=N/n1c(C2CCCCC2)n[nH]c1=S)=C\c1ccccc1 | 48.7 µM | 54.3 µM
83 | C=CCOC(=O)COc1ccc2c(C)c(CC)c(=O)oc2c1 | 1.08 µM | 2.21 µM
84 | O=C(CCN1C(=O)/C(=C/c2ccccc2)SC1=S)Nc1ccccn1 | 89.9 µM | > 100 µM
85 | CCCCC(=O)Nc1sc2c(c1C(=O)OCC)CCC(C=O)=C2Cl | 14.6 µM | 44.5 µM
86 | COc1ccc(/C=N/Nc2cc(N3CCCC3)nc(N3CCCC3)n2)cc1 | 16.3 µM | 25 µM
87 | Cc1ccc(C(=O)c2oc3ccc(Cl)cc3c2NC(=O)CN2CCN(C)CC2)cc1 | 14.6 µM | 17.8 µM
88 | COc1ccc(-c2c(C#Cc3ccsc3)c3ccccc3n2C)cc1 | 25.5 µM | 37.8 µM
89 | O=C(OCC(=O)c1c[nH]c2ccccc12)c1cc(Br)ccc1O | 9.23 µM | 15.3 µM
90 | Cc1cc(-c2c(C)[nH]n(-c3ccccc3)c2=O)n[nH]1 | 5.54 µM | 25.5 µM
